# PubChem BioAssay (NCI)
#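 Test compounds were applied to cells in 96-well plates for 48 hours at 5 doses. At the GI50, growth is halved. At the TGI there is no net growth.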
# Experiments:
# Assay in all cases: NCI anticancer screen, dose series, 48 h
# SNB-75 CNS = system: SNB-75 CNS
# HOP-92 NSCLC = system: HOP-92 NSCLC
# LOX IMVI melanoma = system: LOX IMVI melanoma
# HCT-116 colon = system: HCT-116 colon
# SK-MEL-28 melanoma = system: SK-MEL-28 melanoma
# OVCAR-5 ovarian = system: OVCAR-5 ovarian
# RPMI-8226 leukemia = system: RPMI-8226 leukemia
# HCC-2998 colon = system: HCC-2998 colon
# M14 melanoma = system: M14 melanoma
# A549 NSCLC = system: A549 NSCLC
# COLO 205 colon = system: COLO 205 colon
# NCI-H226 lung = system: NCI-H226 lung
# A498 renal = system: A498 renal
# KM12 colon = system: KM12 colon
# SF-268 CNS = system: SF-268 CNS
# UO-31 renal = system: UO-31 renal
# MDA-MB-231 breast = system: MDA-MB-231 breast
# HT29 colon = system: HT29 colon
# RXF 393 renal = system: RXF 393 renal
# BT-549 breast = system: BT-549 breast
# PC-3 prostate = system: PC-3 prostate
# U251 CNS = system: U251 CNS
# HS 578T breast = system: HS 578T breast
# SW-620 colon = system: SW-620 colon
# UACC-62 melanoma = system: UACC-62 melanoma
# SK-MEL-5 melanoma = system: SK-MEL-5 melanoma
# OVCAR-3 ovarian = system: OVCAR-3 ovarian
# SNB-19 CNS = system: SNB-19 CNS
# HCT-15 colon = system: HCT-15 colon
# NCI-H522 lung = system: NCI-H522 lung
# HL-60(TB) leukemia = system: HL-60(TB) leukemia
# MCF7 breast = system: MCF7 breast
# MOLT-4 leukemia = system: MOLT-4 leukemia
# IGROV1 ovarian = system: IGROV1 ovarian
# SK-OV-3 ovarian = system: SK-OV-3 ovarian
# TK-10 renal = system: TK-10 renal
# ACHN renal = system: ACHN renal
# MALME-3M melanoma = system: MALME-3M melanoma
# UACC-257 melanoma = system: UACC-257 melanoma
# 786-0 renal = system: 786-0 renal
# EKVX NSCLC = system: EKVX NSCLC
# CAKI-1 renal = system: CAKI-1 renal
# DU-145 prostate = system: DU-145 prostate
# SF-539 CNS = system: SF-539 CNS
# SR leukemia = system: SR leukemia
# OVCAR-8 ovarian = system: OVCAR-8 ovarian
# MDA-MB-435 = system: MDA-MB-435
# OVCAR-4 ovarian = system: OVCAR-4 ovarian
# NCI-H23 lung = system: NCI-H23 lung
# SF-295 CNS = system: SF-295 CNS
# NCI-H460 lung = system: NCI-H460 lung
# SK-MEL-2 melanoma = system: SK-MEL-2 melanoma
# SN12C renal = system: SN12C renal
# T-47D breast = system: T-47D breast
# CCRF-CEM leukemia = system: CCRF-CEM leukemia
# K-562 leukemia = system: K-562 leukemia
compound,measurement,setting,value
CCOC(=O)/C=C/c1ccc([N+](=O)[O-])o1,GI50,SNB-75 CNS,4.6 µM
same,TGI,SNB-75 CNS,94 µM
same,GI50,HOP-92 NSCLC,2.66 µM
same,TGI,HOP-92 NSCLC,6.36 µM
same,GI50,LOX IMVI melanoma,1.55 µM
same,TGI,LOX IMVI melanoma,3.71 µM
same,GI50,HCT-116 colon,1.62 µM
same,TGI,HCT-116 colon,5.62 µM
same,GI50,SK-MEL-28 melanoma,2.08 µM
same,TGI,SK-MEL-28 melanoma,5.07 µM
same,GI50,OVCAR-5 ovarian,2.95 µM
same,TGI,OVCAR-5 ovarian,8.13 µM
same,GI50,RPMI-8226 leukemia,3.18 µM
same,TGI,RPMI-8226 leukemia,12.2 µM
same,GI50,HCC-2998 colon,11.2 µM
same,TGI,HCC-2998 colon,24.2 µM
same,GI50,M14 melanoma,2.71 µM
same,TGI,M14 melanoma,8.74 µM
same,GI50,A549 NSCLC,25.3 µM
same,TGI,A549 NSCLC,> 100 µM
same,GI50,COLO 205 colon,2.26 µM
same,TGI,COLO 205 colon,5.69 µM
same,GI50,NCI-H226 lung,2.02 µM
same,TGI,NCI-H226 lung,4.25 µM
same,GI50,A498 renal,21 µM
same,TGI,A498 renal,48.8 µM
same,GI50,KM12 colon,12.6 µM
same,TGI,KM12 colon,27.6 µM
same,GI50,SF-268 CNS,5.38 µM
same,TGI,SF-268 CNS,40.5 µM
same,GI50,UO-31 renal,1.69 µM
same,TGI,UO-31 renal,3.42 µM
same,GI50,MDA-MB-231 breast,3.51 µM
same,TGI,MDA-MB-231 breast,11.6 µM
same,GI50,HT29 colon,3.71 µM
same,TGI,HT29 colon,15.1 µM
same,GI50,RXF 393 renal,1.82 µM
same,TGI,RXF 393 renal,3.86 µM
same,GI50,BT-549 breast,3.43 µM
same,TGI,BT-549 breast,11.4 µM
same,GI50,PC-3 prostate,11.8 µM
same,TGI,PC-3 prostate,39.9 µM
same,GI50,U251 CNS,14.7 µM
same,TGI,U251 CNS,50.4 µM
same,GI50,HS 578T breast,5.74 µM
same,TGI,HS 578T breast,53.9 µM
same,GI50,SW-620 colon,2.38 µM
same,TGI,SW-620 colon,7.16 µM
same,GI50,UACC-62 melanoma,1.71 µM
same,TGI,UACC-62 melanoma,4.36 µM
same,GI50,SK-MEL-5 melanoma,3.81 µM
same,TGI,SK-MEL-5 melanoma,15.2 µM
same,GI50,OVCAR-3 ovarian,3.13 µM
same,TGI,OVCAR-3 ovarian,9.21 µM
same,GI50,SNB-19 CNS,29 µM
same,TGI,SNB-19 CNS,> 100 µM
same,GI50,HCT-15 colon,2.03 µM
same,TGI,HCT-15 colon,7.53 µM
same,GI50,NCI-H522 lung,1.34 µM
same,TGI,NCI-H522 lung,3.24 µM
same,GI50,HL-60(TB) leukemia,2.38 µM
same,TGI,HL-60(TB) leukemia,6.78 µM
same,GI50,MCF7 breast,2.74 µM
same,TGI,MCF7 breast,17.2 µM
same,GI50,MOLT-4 leukemia,2.76 µM
same,TGI,MOLT-4 leukemia,13 µM
same,GI50,IGROV1 ovarian,10.9 µM
same,TGI,IGROV1 ovarian,24.8 µM
same,GI50,SK-OV-3 ovarian,22.4 µM
same,TGI,SK-OV-3 ovarian,> 100 µM
same,GI50,TK-10 renal,4.7 µM
same,TGI,TK-10 renal,16.3 µM
same,GI50,ACHN renal,1.75 µM
same,TGI,ACHN renal,3.8 µM
same,GI50,MALME-3M melanoma,2.32 µM
same,TGI,MALME-3M melanoma,4.99 µM
same,GI50,UACC-257 melanoma,2.74 µM
same,TGI,UACC-257 melanoma,11.4 µM
same,GI50,786-0 renal,2.13 µM
same,TGI,786-0 renal,4.67 µM
same,GI50,EKVX NSCLC,24.7 µM
same,TGI,EKVX NSCLC,80.7 µM
same,GI50,CAKI-1 renal,2.06 µM
same,TGI,CAKI-1 renal,4.38 µM
same,GI50,DU-145 prostate,3.17 µM
same,TGI,DU-145 prostate,11.1 µM
same,GI50,SF-539 CNS,2.7 µM
same,TGI,SF-539 CNS,7.4 µM
same,GI50,SR leukemia,1.64 µM
same,TGI,SR leukemia,26.1 µM
same,GI50,OVCAR-8 ovarian,2.91 µM
same,TGI,OVCAR-8 ovarian,12.3 µM
same,GI50,MDA-MB-435,2.1 µM
same,TGI,MDA-MB-435,4.67 µM
same,GI50,OVCAR-4 ovarian,4.93 µM
same,TGI,OVCAR-4 ovarian,20.4 µM
same,GI50,NCI-H23 lung,4.12 µM
same,TGI,NCI-H23 lung,18.4 µM
same,GI50,SF-295 CNS,19.7 µM
same,TGI,SF-295 CNS,48.2 µM
same,GI50,NCI-H460 lung,18.1 µM
same,TGI,NCI-H460 lung,38.9 µM
same,GI50,SK-MEL-2 melanoma,11.3 µM
same,TGI,SK-MEL-2 melanoma,36.8 µM
same,GI50,SN12C renal,3.03 µM
same,TGI,SN12C renal,10.8 µM
same,GI50,T-47D breast,5.55 µM
same,TGI,T-47D breast,25.9 µM
same,GI50,CCRF-CEM leukemia,0.518 µM
same,TGI,CCRF-CEM leukemia,10.2 µM
same,GI50,K-562 leukemia,2.97 µM
same,TGI,K-562 leukemia,12.9 µM
